Assay [1] concerns the target T1, RlmI (Escherichia coli, UniProt P75876).
T1 construct: pCA24N or pGEX4T-1 plasmid; His tag detected by anti-His; purified
T1 sequence (P75876 1-396): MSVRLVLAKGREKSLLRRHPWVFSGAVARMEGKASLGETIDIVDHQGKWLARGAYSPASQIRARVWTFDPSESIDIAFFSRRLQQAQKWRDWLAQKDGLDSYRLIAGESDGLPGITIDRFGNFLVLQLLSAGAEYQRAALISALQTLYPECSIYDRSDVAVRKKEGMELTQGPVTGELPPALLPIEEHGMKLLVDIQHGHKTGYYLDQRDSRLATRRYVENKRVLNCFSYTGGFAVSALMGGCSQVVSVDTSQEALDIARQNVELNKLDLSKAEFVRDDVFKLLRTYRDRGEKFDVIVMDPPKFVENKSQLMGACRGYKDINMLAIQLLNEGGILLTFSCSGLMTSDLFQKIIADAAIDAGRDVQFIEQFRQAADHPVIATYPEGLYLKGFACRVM
The experiment in a line: in vitro rRNA methylation, HPLC. The assay is classed as biochemical.

The target in assay [2] is T1, RlmI. The experiment in a line: ITC. Type of assay: binding.
Assay [3] concerns the target T2, RlmI (Escherichia coli, UniProt P75876, R64A).
T2 construct: pCA24N or pGEX4T-1 plasmid; His tag detected by anti-His; purified
T2 sequence (P75876 1-396 R64A): T1 sequence (P75876 1-396) with R64A
As to the kind of experiment: ITC. The assay is classed as binding.

The target of a further assay is T3, RlmE (Escherichia coli, UniProt P0C0R7).
T3 construct: pCA24N or pGEX4T-1 plasmid; purified
T3 sequence (P0C0R7 1-209): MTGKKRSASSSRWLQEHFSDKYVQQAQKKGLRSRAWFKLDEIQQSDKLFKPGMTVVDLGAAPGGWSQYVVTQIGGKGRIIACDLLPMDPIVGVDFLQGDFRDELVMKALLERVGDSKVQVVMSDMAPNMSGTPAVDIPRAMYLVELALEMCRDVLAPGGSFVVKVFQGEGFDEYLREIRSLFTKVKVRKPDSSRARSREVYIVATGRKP
As to the kind of experiment: in vitro rRNA methylation, HPLC. Type of assay: biochemical.

Assay [4] addresses T4, RlmI (Escherichia coli, UniProt P75876, R103A).
T4 construct: pCA24N or pGEX4T-1 plasmid; His tag detected by anti-His; purified
T4 sequence (P75876 1-396 R103A): T1 sequence (P75876 1-396) with R103A
The experiment in a line: ITC. The assay is classed as binding.

Assay [5] concerns the target T5, RlmI (Escherichia coli, UniProt P75876, K201A).
T5 construct: pCA24N or pGEX4T-1 plasmid; His tag detected by anti-His; purified
T5 sequence (P75876 1-396 K201A): T1 sequence (P75876 1-396) with K201A
The experiment in a line: ITC. The assay is classed as binding.

Assay [6] deals with T6, RlmI (Escherichia coli, UniProt P75876, G114A).
T6 construct: pCA24N or pGEX4T-1 plasmid; His tag detected by anti-His; purified
T6 sequence (P75876 1-396 G114A): T1 sequence (P75876 1-396) with G114A
As to the kind of experiment: ITC. The assay is classed as binding.

Numbering of substitutions follows the chain as printed.

Usually inhibition stands for the change of the read-out against control, counted positive when it falls. Read a high inhibition as a strong effect. For orientation: Kd means the concentration at which binding is half-saturated.

Consider `Nc1nc2c(ncn2[C@@H]2O[C@@H]3CO[P@](=O)(O)O[C@H]4[C@@H](O)[C@H](n5cnc6c(=O)[nH]c(N)nc65)O[C@@H]4CO[P@](=O)(O)O[C@H]3[C@H]2O)c(=O)[nH]1` [c-di-GMP], for which the inhibition at 5 µM is 49% at RlmI [1] and 31% on RlmE. In addition, the Kd was 1.3 µM on RlmI [2]; 102 µM on RlmI [3]; 76.5 µM on RlmI [4]; 401 µM on RlmI [5]; 149 µM on RlmI [6].

For the origin of these results see PMC11894153, “c-di-GMP inhibits rRNA methylation and impairs ribosome assembly in the presence of kanamycin” (EMBO Reports, 2025).
